Test in all cases: fluorescence titration (light-up), quadratic fit
Holding throughout (conditions): 100 mM KCl, 1 mM MgCl2; 40 mM HEPES pH 7.4 (7.5 in Results), room temperature; 1 µM dye, DNA varied

Test [1] relates to 11LE (11LE-v4) (DNA, aptamer) TCCTTCGCACAGCACACCTGCCGTATAGCTCTGAATCAAGGATTTTAGGGAGGCGATGGTGTCTTAGTAGGGATGATGCGGCAGTGGGCTTCGCAGAACAGTGTTTATTCTGCGAGGGGACTAAGACTCCTCCTCCTGCC
Test [2] deals with 4LE-v4 (DNA, aptamer) TCCTTCGCACAGCACACCTGCCGTATAGCTCTGAATCAAGGATTTTAGGGAGGCGATTAGTAGGGATGATGCGGCAGTGGGCTTCGCAGAACAGTGTTTATTCTGCGAGGGGACTATCCTCCTGCC
Test [3] relates to 8LE-v4 (DNA, aptamer) TCCTTCGCACAGCACACCTGCCGTATAGCTCTGAATCAAGGATTTTAGGGAGGCGATGTCTTAGTAGGGATGATGCGGCAGTGGGCTTCGCAGAACAGTGTTTATTCTGCGAGGGGACTAAGACTCCTCCTGCC
Test [4] concerns FLE (FLE-v4) (DNA, aptamer) TCCTTCGCACAGCACACCTGCCGTATAGCTCTGAATCAAGGATTTTAGGGAGGCGATAACGTGCTCAAGGTGTCTTAGTAGGGATGATGCGGCAGTGGGCTTCGCAGAACAGTGTTTATTCTGCGAGGGGACTAAGACTCCTTCAGCAAGTTAAGCTCCTCCTGCC

As for `CC1=N/C(=C\c2cc(F)c(O)c(F)c2)C(=O)N1CC(F)(F)F`, the KD in test [1] is given as 0.01 (0.01, 0.07, 95% CI) µM; in test [2], 6 (4.93, 7.18, 95% CI) µM; in test [3] it was 0.04 (0.01, 0.12, 95% CI) µM; in test [4] it was 0.07 (0.01, 0.16, 95% CI) µM.
